“And” between values parts separate entries of the source, which are not always exact repeats. Equal entries are not always repeated. Inconclusive results and toxic doses are left out. No stated cut-off is given here; in the data, active means T/C of 150% or more; inactive means T/C below 125%.
Test system: L1210 leukemia ip in BDF1 mice, survival T/C
Assay: NCI In Vivo Anticancer Drug Screen. Data for tumor model L1210 Leukemia (intraperitoneal) in B6D2F1 (BDF1) mice
Conditions: endpoint: mean survival time, higher = longer survival
How it was run: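 Tumor cells were implanted, animals were treated, and survival was followed. The result divides the treated measurement by the vehicle-control measurement.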

[1] = dose: 50.0 mg/kg/injection, schedule: Q04DX003 (ip), vehicle: saline
[2] = dose: 100.0 mg/kg/injection, schedule: Q01DX001 (ip), vehicle: Klucel (hydroxypropylcellulose) (HPC)
[3] = dose: 200.0 mg/kg/injection, schedule: Q01DX001 (ip), vehicle: Klucel (hydroxypropylcellulose) (HPC)
[4] = dose: 100.0 mg/kg/injection, schedule: Q01DX009 (ip), vehicle: Klucel (hydroxypropylcellulose) (HPC)
[5] = dose: 200.0 mg/kg/injection, schedule: Q01DX009 (ip), vehicle: Klucel (hydroxypropylcellulose) (HPC)
[6] = dose: 400.0 mg/kg/injection, schedule: Q01DX009 (ip), vehicle: Klucel (hydroxypropylcellulose) (HPC)
[7] = dose: 100.0 mg/kg/injection, schedule: Q01DX009 (ip), vehicle: saline
[8] = dose: 100.0 mg/kg/injection, schedule: Q04DX003 (ip), vehicle: saline
[9] = dose: 200.0 mg/kg/injection, schedule: Q01DX009 (ip), vehicle: saline
[10] = dose: 100.0 mg/kg/injection, schedule: Q04DX003 (ip), vehicle: Klucel (hydroxypropylcellulose) (HPC)
[11] = dose: 100.0 mg/kg/injection, schedule: Q01DX009 (ip), vehicle: saline with Tween-80
[12] = dose: 100.0 mg/kg/injection, schedule: Q04DX002 (ip), vehicle: saline with Tween-80
[13] = dose: 200.0 mg/kg/injection, schedule: Q01DX009 (ip), vehicle: saline with Tween-80
[14] = dose: 400.0 mg/kg/injection, schedule: Q01DX009 (ip), vehicle: saline with Tween-80
[15] = dose: 400.0 mg/kg/injection, schedule: Q04DX002 (ip), vehicle: saline with Tween-80
[16] = dose: 100.0 mg/kg/injection, schedule: Q04DX003 (ip), vehicle: saline with Tween-80
[17] = dose: 200.0 mg/kg/injection, schedule: Q04DX003 (ip), vehicle: saline with Tween-80
[18] = dose: 400.0 mg/kg/injection, schedule: Q04DX003 (ip), vehicle: saline with Tween-80

Measured: T/C

CCOC(=O)/C=C/C(=O)O.[Zn+2]
inactive: dose: 12.5 mg/kg/injection, schedule: Q04DX003 (ip), vehicle: saline 96 % of control and 91 % of control | [1] 96 % of control

O=C(Nc1cccc2ccccc12)Oc1cccc2cccnc12
inactive: dose: 50.0 mg/kg/injection, schedule: Q01DX001 (ip), vehicle: Klucel (hydroxypropylcellulose) (HPC) 96 % of control | [2] 105 % of control | [3] 105 % of control

O=C(C#CC(=O)[O][Sn]([c]1ccccc1)([c]1ccccc1)[c]1ccccc1)[O][Sn]([c]1ccccc1)([c]1ccccc1)[c]1ccccc1
inactive: dose: 6.25 mg/kg/injection, schedule: Q01DX001 (ip), vehicle: saline 90 % of control | dose: 12.5 mg/kg/injection, schedule: Q01DX001 (ip), vehicle: saline 95 % of control | dose: 25.0 mg/kg/injection, schedule: Q01DX001 (ip), vehicle: saline 100 % of control | dose: 35.0 mg/kg/injection, schedule: Q01DX001 (ip), vehicle: Klucel (hydroxypropylcellulose) (HPC) 91 % of control

O=C(O)c1ccc(N/N=C\c2cc(=O)[nH]c(=O)[nH]2)cc1
inactive: dose: 5.0 mg/kg/injection, schedule: Q01DX001 (ip), vehicle: saline 97 % of control | dose: 10.0 mg/kg/injection, schedule: Q01DX001 (ip), vehicle: saline 97 % of control | dose: 20.0 mg/kg/injection, schedule: Q01DX001 (ip), vehicle: saline 98 % of control | dose: 40.0 mg/kg/injection, schedule: Q01DX001 (ip), vehicle: saline 97 % of control

Cc1cccc(Cl)c1NC(=O)Nc1cc([N+](=O)[O-])ccc1O
inactive: dose: 25.0 mg/kg/injection, schedule: Q01DX009 (ip), vehicle: Klucel (hydroxypropylcellulose) (HPC) 91 % of control | dose: 50.0 mg/kg/injection, schedule: Q01DX009 (ip), vehicle: Klucel (hydroxypropylcellulose) (HPC) 91 % of control | [4] 96 % of control and 87 % of control | [5] 91 % of control | [6] 88 % of control

CC(=O)OCc1cccc(C)n1
inactive: [7] 97 % of control | [8] 94 % of control and 102 % of control | [9] 96 % of control | dose: 200.0 mg/kg/injection, schedule: Q04DX003 (ip), vehicle: saline 100 % of control | dose: 400.0 mg/kg/injection, schedule: Q01DX009 (ip), vehicle: saline 100 % of control | dose: 400.0 mg/kg/injection, schedule: Q04DX003 (ip), vehicle: saline 93 % of control and 97 % of control

C=CCC(C#N)(C(=O)OCC)/C(C)=C/C (stereo not given)
inactive: dose: 75.0 mg/kg/injection, schedule: Q01DX001 (ip), vehicle: other 100 % of control | dose: 150.0 mg/kg/injection, schedule: Q01DX001 (ip), vehicle: other 103 % of control | dose: 300.0 mg/kg/injection, schedule: Q01DX001 (ip), vehicle: other 97 % of control

O=C1OCCN1S(=O)(=O)c1ccc([N+](=O)[O-])cc1
inactive: dose: 3.12 mg/kg/injection, schedule: Q01DX009 (ip), vehicle: Klucel (hydroxypropylcellulose) (HPC) 94 % of control | dose: 6.25 mg/kg/injection, schedule: Q01DX009 (ip), vehicle: Klucel (hydroxypropylcellulose) (HPC) 93 % of control | dose: 12.5 mg/kg/injection, schedule: Q01DX009 (ip), vehicle: Klucel (hydroxypropylcellulose) (HPC) 94 % of control | [2] 86 % of control | [10] 97 % of control | [3] 91 % of control | dose: 200.0 mg/kg/injection, schedule: Q04DX003 (ip), vehicle: Klucel (hydroxypropylcellulose) (HPC) 92 % of control | dose: 400.0 mg/kg/injection, schedule: Q04DX003 (ip), vehicle: Klucel (hydroxypropylcellulose) (HPC) 88 % of control

COc1ccc(C=Nc2ccc3c(c2)OCO3)cc1Br
inactive: [11] 88 % of control | [12] 108 % of control | [13] 101 % of control | dose: 200.0 mg/kg/injection, schedule: Q04DX002 (ip), vehicle: saline with Tween-80 102 % of control | [14] 103 % of control | [15] 97 % of control

O=S(=O)(CCCl)c1ccc(Br)cc1
inactive: dose: 100.0 mg/kg/injection, schedule: Q04DX002 (ip), vehicle: Klucel (hydroxypropylcellulose) (HPC) 101 % of control | dose: 200.0 mg/kg/injection, schedule: Q04DX002 (ip), vehicle: Klucel (hydroxypropylcellulose) (HPC) 97 % of control | dose: 400.0 mg/kg/injection, schedule: Q04DX002 (ip), vehicle: Klucel (hydroxypropylcellulose) (HPC) 101 % of control

CCN(CC)C(=S)[S][Pb]([S]C(=S)N(CC)CC)([c]1ccccc1)[c]1ccccc1
inactive: dose: 100.0 mg/kg/injection, schedule: Q01DX001 (ip), vehicle: steriod suspending solution 97 % of control | dose: 200.0 mg/kg/injection, schedule: Q01DX001 (ip), vehicle: steriod suspending solution 98 % of control | dose: 400.0 mg/kg/injection, schedule: Q01DX001 (ip), vehicle: steriod suspending solution 100 % of control

N#CCCCCN=[N+]=[N-]
inactive: dose: 37.5 mg/kg/injection, schedule: Q04DX003 (ip), vehicle: saline 87 % of control | dose: 75.0 mg/kg/injection, schedule: Q04DX003 (ip), vehicle: saline 104 % of control | dose: 150.0 mg/kg/injection, schedule: Q04DX003 (ip), vehicle: saline 98 % of control

CC(C)P(=O)(CC(=O)O)c1ccccc1 (stereo not given)
inactive: [12] 100 % of control | [15] 97 % of control

CC(C)N(C(=O)/C=C/C(=O)N(C(C)C)C(C)C)C(C)C
inactive: dose: 25.0 mg/kg/injection, schedule: Q04DX003 (ip), vehicle: saline 92 % of control | [1] 95 % of control | [16] 100 % of control | [8] 98 % of control | [17] 96 % of control

CCCCSP(=S)(SCCCC)SCCCC
inactive: [2] 94 % of control | [11] 105 % of control | [3] 94 % of control | [13] 105 % of control | dose: 400.0 mg/kg/injection, schedule: Q01DX001 (ip), vehicle: Klucel (hydroxypropylcellulose) (HPC) 97 % of control | [14] 102 % of control

CC12CCC3C(CCC4=CC(=O)CCC43C)C1CCCN2 (stereo not given)
inactive: dose: 75.0 mg/kg/injection, schedule: Q01DX001 (sc), vehicle: steriod suspending solution 93 % of control | dose: 150.0 mg/kg/injection, schedule: Q01DX001 (sc), vehicle: steriod suspending solution 90 % of control

Cc1ccnc(N=Cc2ccccc2)c1
inactive: dose: 50.0 mg/kg/injection, schedule: Q01DX001 (ip), vehicle: saline 89 % of control | dose: 100.0 mg/kg/injection, schedule: Q01DX001 (ip), vehicle: saline 101 % of control

Cc1cnc(Br)c(Br)c1
inactive: [16] 102 % of control | [17] 100 % of control | [18] 102 % of control

O=C1CCCCCCCCCCC1Br (stereo not given)
inactive: [11] 110 % of control | [16] 92 % of control | [13] 95 % of control | [17] 87 % of control | [14] 87 % of control | [18] 92 % of control

O=S(=O)(c1ccc(Cl)cc1)C(Cl)(Cl)Cl
inactive: [4] 93 % of control | [5] 97 % of control | [6] 96 % of control

O=C(O)CC[n+]1c(/C=C/c2cc(Br)c(O)c(Br)c2)sc2ccccc21
inactive: dose: 100.0 mg/kg/injection, schedule: Q04DX003 (ip), vehicle: saline sonified 102 % of control | dose: 200.0 mg/kg/injection, schedule: Q04DX003 (ip), vehicle: saline sonified 99 % of control

C1C2OC3CN1CC(O2)O3
inactive: dose: 50.0 mg/kg/injection, schedule: Q01DX009 (ip), vehicle: saline 97 % of control | [7] 97 % of control | [9] 94 % of control

CCOC(=O)C1(C(=O)OCC)C(C)CC2Nc3ccccc3C(=O)N21 (stereo not given)
inactive: dose: 25.0 mg/kg/injection, schedule: Q04DX003 (ip), vehicle: Klucel (hydroxypropylcellulose) (HPC) 87 % of control | dose: 50.0 mg/kg/injection, schedule: Q04DX003 (ip), vehicle: Klucel (hydroxypropylcellulose) (HPC) 91 % of control | [10] 91 % of control

Cc1ccnc2ccc3ccccc3c12
inactive: dose: 100.0 mg/kg/injection, schedule: Q01DX001 (ip), vehicle: other 101 % of control | dose: 200.0 mg/kg/injection, schedule: Q01DX001 (ip), vehicle: other 107 % of control | dose: 400.0 mg/kg/injection, schedule: Q01DX001 (ip), vehicle: other 113 % of control

— PubChem BioAssay AID248 (DTP/NCI, 2004)
